{
  "source": "paper PMC10532956",
  "about": "“Age and Sex-Related Differences in Teicoplanine Isoform Concentrations in SARS-CoV-2 Patients” (Life, 2023)",
  "conditions": "male, human, in vivo, iv",
  "data": [
    {"molecule": "CC(=O)N[C@H]1[C@H](O[C@@H]2c3ccc(c(Cl)c3)Oc3cc4cc(c3O)Oc3ccc(cc3Cl)C[C@H]3NC(=O)[C@H](N)c5ccc(O)c(c5)Oc5cc(O)cc(c5)[C@H](NC3=O)C(=O)N[C@H]4C(=O)N[C@H]3C(=O)N[C@@H]2C(=O)N[C@H](C(=O)O)c2cc(O)cc(O[C@H]4O[C@H](CO)[C@@H](O)[C@H](O)[C@@H]4O)c2-c2cc3ccc2O)O[C@H](CO)[C@@H](O)[C@@H]1O", "note": "[A3-1]", "values": [
      {"measurement": "isoform plasma concentration, median", "result": 0.18, "unit": "µg/mL"}
    ]}
  ]
}
